Test results published in PubChem BioAssay AID1581.
Records with an inconclusive call do not appear.

These molecules were tested against PAR-4 (PAWR) - atypical PKC interaction (assay: PAR4-aPKC binding disruptors (AID 1581)). Settings: PAR4-aPKC protein interaction assay, normalized signal.

Structure (SMILES)	EC50
C=Cc1c(C)c2cc3[nH]c(cc4nc(cc5nc(cc1[nH]2)C(C)=C5CCC(=O)O)C(CCC(=O)O)=C4C)c(C)c3C=C	14 µM
NC[C@H](O)c1ccc(O)c(O)c1	29 µM
O=c1c(O)cc2c(O)oc3c(=O)c(O)cc4c3c2c1CC=4O	21 µM
CO[C@@]1(NC(=O)C(C(=O)O)c2ccc(O)cc2)C(=O)N2C(C(=O)O)=C(CSc3nnnn3C)CO[C@@H]21 (some centres not stated)	11 µM
O=c1c(O)c(-c2ccc(O)cc2O)oc2cc(O)cc(O)c12	10 µM
O=C1C=CC(=O)c2c(O)cccc21	18 µM
N[C@@H](Cc1ccc(O)c(O)c1)C(=O)O	13 µM
